Test results: ChEMBL document CHEMBL4823257, “Penitol A and Penicitols E-I: Citrinin Derivatives from Penicillium citrinum and the Structure Revision of Previously Proposed Analogues” (J Nat Prod, 2021)
In brackets after ≈: the same amount, converted by molar mass.

Experiments:
[1] = system: MCF7; test: Cytotoxicity against human MCF7 cells by SRB assay; format: functional, cell-based
[2] = system: HCT-116; test: Cytotoxicity against human HCT-116 cells by SRB assay; format: functional, cell-based
[3] = system: Escherichia coli; test: Antibacterial activity against Escherichia coli ATCC 25922; format: functional
[4] = system: HL-60; test: Cytotoxicity against human HL-60 cells by MTT assay; format: functional, cell-based
[5] = system: Staphylococcus aureus; test: Antibacterial activity against Staphylococcus aureus ATCC 29213; format: functional
[6] = system: L02; test: Cytotoxicity against human L02 cells by SRB assay; format: functional, cell-based
[7] = system: Bel-7402; test: Cytotoxicity against human Bel-7402 cells by SRB assay; format: functional, cell-based
[8] = system: A549; test: Cytotoxicity against human A549 cells by SRB assay; format: functional, cell-based
[9] = system: MDA-MB-231; test: Cytotoxicity against human MDA-MB-231 cells by SRB assay; format: functional, cell-based
[10] = system: Pseudomonas aeruginosa; test: Antibacterial activity against Pseudomonas aeruginosa 14; format: functional
[11] = system: Enterococcus faecalis; test: Antibacterial activity against Vancomycin resistant Enterococcus faecalis 1010798; format: functional
[12] = system: Klebsiella pneumoniae; test: Antibacterial activity against Klebsiella pneumoniae WNX-1; format: functional
[13] = system: K562; test: Cytotoxicity against human K562 cells by MTT assay; format: functional, cell-based
[14] = system: Bacillus subtilis; test: Antibacterial activity against Bacillus subtilis ATCC 6051; format: functional

Row | Compound | IC50 [1] [µM] | IC50 [2] [µM] | MIC [3] [µg/mL] | IC50 [4] [µM] | MIC [5] [µg/mL] | IC50 [6] [µM] | IC50 [7] [µM] | IC50 [8] [µM] | IC50 [9] [µM] | MIC [10] [µg/mL] | MIC [11] [µg/mL] | MIC [12] [µg/mL] | IC50 [13] [µM] | MIC [14] [µg/mL]
1 | Cc1c(O)cc(O)c2c1[C@H](C)[C@@H](C)OC21CCCCC1 | 15 | 24 | > 64 | 20 | 16 (≈ 57.9 µM) | > 30 | 12 | 28 | 26 | > 64 | 32 (≈ 116 µM) | > 64 | 8.8 | 32 (≈ 116 µM)
2 | CO[C@]12CCCC[C@@H]1[C@H]1O[C@H](C)[C@@H](C)c3c(C)c(O)cc(c31)O2 | > 30 | > 30 | > 64 | > 30 | > 64 | > 30 | 17 | 19 | > 30 | > 64 | > 64 | > 64 | > 30 | > 64
3 | CO[C@@]12CCCC[C@H]1[C@@H]1O[C@H](C)[C@@H](C)c3c(C)c(O)cc(c31)O2 | > 30 | > 30 | > 64 | > 30 | 64 (≈ 201 µM) | > 30 | > 30 | > 30 | > 30 | > 64 | 32 (≈ 100 µM) | > 64 | 26 | 32 (≈ 100 µM)
4 | Cc1c(O)cc2c3c1[C@H](C)[C@@H](C)O[C@H]3[C@@H]1CCCC[C@@]1(O)O2 | > 30 | > 30 | > 64 | > 30 | > 64 | > 30 | > 30 | > 30 | > 30 | > 64 | > 64 | > 64 | > 30 | > 64
5 | Cc1c(O)cc2c3c1[C@H](C)[C@@H](C)O[C@@H]3[C@H]1CCCC[C@]1(O)O2 | > 30 | > 30 | > 64 | > 30 | > 64 | > 30 | > 30 | > 30 | > 30 | > 64 | > 64 | > 64 | > 30 | > 64
6 | C/C=C/[C@@H]1C=C[C@@H]2C[C@H](C)CC[C@H]2[C@]1(C)/C(O)=C1/C(=O)[C@H](CO)N(C)C1=O |  |  |  |  | 2 (≈ 5.35 µM) |  |  |  |  |  | 2 (≈ 5.35 µM) |  |  | 1 (≈ 2.68 µM)
7 | COc1cccc2c1C(=O)c1c(O)c3c(c(O)c1C2=O)C[C@@](O)(C(=O)CO)C[C@@H]3O[C@H]1C[C@H](N)[C@H](O)[C@H](C)O1 [DOXORUBICIN] | < 1 | < 1 |  | < 1 |  | < 1 | < 1 | < 1 | < 1 |  |  |  | < 1 | 
8 | Cc1c(O)cc2c3c1[C@H](C)[C@@H](C)O[C@H]3[C@H]1CCCC[C@@]1(O)O2 |  |  | > 64 |  | > 64 | > 30 |  |  | > 30 | > 64 | > 64 | > 64 | > 30 | > 64
9 | COLISTIN |  |  | 0.5 |  |  |  |  |  |  | 0.3 |  | 0.5 |  | 
10 | Cc1c(O)cc2c3c1[C@H](C)[C@@H](C)O[C@@H]3[C@@H]1CCCC[C@]1(O)O2 | > 30 | > 30 | > 64 | > 30 | > 64 | > 30 | > 30 | > 30 | > 30 | > 64 | > 64 | > 64 | > 30 | > 64
